The results in this text go back to ChEMBL document CHEMBL5729184, “Purine derivatives and the use thereof as medicament” (2022).

In this assay the target is Glutamate receptor ionotropic, NMDA 2B (Homo sapiens, UniProt Q13224). Kind of assay: FLIPR Assay: At the assay day cells were washed 3× with assay buffer, 10 μL buffer remained in the wells after washing. 10 μL Ca kit loading buffer (AAT Bioquest) was added to the cells and the plates were incubated with lid for 60 minutes at r.t. 20 μl assay buffer containing 60 μM glycine (20 μM final) and 3 μM glutamate (1 μM final) was added to column 1-23. Fluorescence (indicating the calcium influx as a result of the NR1/NR2B ion channel activation) was read on the FLIPRtetra device for 60 seconds to monitor the glutamate induced effects. After 2 minutes 20 μL of compound or controls (row 1-22) in assay buffer were carefully added to the wells. […] Each assay microtiter plate contained wells (in column 23 or 24) with DMSO controls instead of compound as controls for glycine/glutamate induced fluorescence (high controls) and wells with 1 μM of a reference NR2b NAM as low controls (Compound 22; reference: Layton, Mark E et al, ACS Chemical Neuroscience 2011, 2(7), 352-362).
Glutamate receptor ionotropic, NMDA 2B, sequence (Q13224 whole entry): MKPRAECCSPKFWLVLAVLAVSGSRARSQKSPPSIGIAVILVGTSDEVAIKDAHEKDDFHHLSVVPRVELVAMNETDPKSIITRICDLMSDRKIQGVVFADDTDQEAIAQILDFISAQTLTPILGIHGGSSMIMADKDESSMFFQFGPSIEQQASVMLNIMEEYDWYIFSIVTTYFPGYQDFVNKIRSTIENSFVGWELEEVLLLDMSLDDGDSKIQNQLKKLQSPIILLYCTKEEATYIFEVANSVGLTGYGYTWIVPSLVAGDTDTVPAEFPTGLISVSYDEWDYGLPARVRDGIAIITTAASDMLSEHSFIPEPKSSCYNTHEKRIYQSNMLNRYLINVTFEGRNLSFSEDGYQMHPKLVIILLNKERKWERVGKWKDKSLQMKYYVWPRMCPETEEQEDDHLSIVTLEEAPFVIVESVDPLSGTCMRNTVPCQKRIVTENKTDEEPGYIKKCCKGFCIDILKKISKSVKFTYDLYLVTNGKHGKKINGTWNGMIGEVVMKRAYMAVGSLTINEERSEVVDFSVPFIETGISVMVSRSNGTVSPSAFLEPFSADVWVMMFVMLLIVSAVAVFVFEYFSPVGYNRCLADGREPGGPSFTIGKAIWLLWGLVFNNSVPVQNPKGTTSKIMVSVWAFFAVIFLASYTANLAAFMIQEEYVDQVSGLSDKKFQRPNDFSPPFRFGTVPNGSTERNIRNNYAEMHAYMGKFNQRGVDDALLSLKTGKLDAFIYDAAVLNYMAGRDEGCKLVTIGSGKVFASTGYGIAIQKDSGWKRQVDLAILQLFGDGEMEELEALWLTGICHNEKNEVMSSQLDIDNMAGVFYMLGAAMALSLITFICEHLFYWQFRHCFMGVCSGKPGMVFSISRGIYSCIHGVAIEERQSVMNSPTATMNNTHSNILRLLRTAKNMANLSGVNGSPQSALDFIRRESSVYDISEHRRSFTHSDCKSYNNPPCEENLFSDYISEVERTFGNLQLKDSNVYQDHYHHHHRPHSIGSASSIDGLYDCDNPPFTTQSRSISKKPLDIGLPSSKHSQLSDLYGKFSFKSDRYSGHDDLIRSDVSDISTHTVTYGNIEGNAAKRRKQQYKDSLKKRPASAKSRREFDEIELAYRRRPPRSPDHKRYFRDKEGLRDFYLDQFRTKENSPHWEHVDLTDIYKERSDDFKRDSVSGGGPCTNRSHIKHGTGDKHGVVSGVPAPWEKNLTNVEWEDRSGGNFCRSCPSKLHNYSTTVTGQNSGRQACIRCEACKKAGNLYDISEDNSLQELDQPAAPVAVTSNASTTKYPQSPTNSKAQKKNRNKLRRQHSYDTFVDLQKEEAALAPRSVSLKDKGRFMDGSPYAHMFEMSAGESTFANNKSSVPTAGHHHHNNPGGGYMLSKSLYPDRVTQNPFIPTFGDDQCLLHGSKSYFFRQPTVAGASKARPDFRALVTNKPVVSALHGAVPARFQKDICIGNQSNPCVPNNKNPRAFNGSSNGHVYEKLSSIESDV
In the case of `Cc1cccc(F)c1COC(=O)N1CCOC(c2nc3cncnc3[nH]2)C1` (stereo not given), the IC50 is 118 nM. For the molecule `O=C(OCc1ccc(Cl)cc1)N1CCOC(c2nc3cncnc3[nH]2)C1` (stereo not given), the IC50 turned out to be 113 nM. The value for `O=C(OCc1ccc(C(F)F)cc1)N1CCOC(c2nc3cncnc3[nH]2)C1` (stereo not given) was 45 nM. Turning to `O=C(OCc1ccc(F)cc1F)N1CCOC(c2nc3cncnc3[nH]2)C1` (stereo not given), the IC50 turned out to be 102 nM. The value for `O=C(OCc1ccc(F)c(F)c1)N1CCOC(c2nc3cncnc3[nH]2)C1` (stereo not given) was 520 nM; that for `Cc1cccc(COC(=O)N2CCOC(c3nc4cncnc4[nH]3)C2)c1` (stereo not given) was 322 nM; that for `O=C(OCc1cccc(F)c1F)N1CCOC(c2nc3cncnc3[nH]2)C1` (stereo not given) was 60 nM. For the molecule `Cc1ccc(COC(=O)N2CCOC(c3nc4cncnc4[nH]3)C2)cc1` (stereo not given), the IC50 stood at 67 nM. The figure for `O=C(OCc1c(F)cc(F)cc1F)N1CCOC(c2nc3cncnc3[nH]2)C1` (stereo not given) is 84 nM; for `Cc1ccc(COC(=O)N2CCOC(c3nc4c(C)ncnc4[nH]3)C2)cc1` (stereo not given) it is 150 nM; for `Cc1ncnc2[nH]c(C3CN(C(=O)OCc4ccccc4F)CCO3)nc12` (stereo not given) it is 385 nM.

Regarding `O=C(OCc1cccc(F)c1)N1CCOC(c2nc3cncnc3[nH]2)C1` (stereo not given), the half-inhibitory concentration (IC50) worked out at 295 nM. The figure for `O=C(OCc1ccc(F)cc1)N1CCOC(c2nc3cncnc3[nH]2)C1` (stereo not given) is 107 nM. The figure for `O=C(OCc1ccc(F)cc1Cl)N1CCOC(c2nc3cncnc3[nH]2)C1` (stereo not given) is 90 nM; for `Cc1c(F)cccc1COC(=O)N1CCOC(c2nc3cncnc3[nH]2)C1` (stereo not given) it is 520 nM; for `Cc1cccc(COC(=O)N2CCOC(c3nc4cncnc4[nH]3)C2)c1F` (stereo not given) it is 83 nM.

As for `O=C(OCc1c(F)cccc1F)N1CCOC(c2nc3cncnc3[nH]2)C1` (stereo not given), the IC50 is 111 nM. Take `O=C(OCc1ccccc1F)N1CCOC(c2nc3cncnc3[nH]2)C1` (stereo not given): the IC50 was 74 nM.

Consider `O=C(OCc1ccccc1)N1CCOC(c2nc3cncnc3[nH]2)C1` (stereo not given), for which the IC50 amounted to 114 nM. The value for `Cc1ccc(COC(=O)N2CCO[C@H](c3nc4cncnc4[nH]3)C2)cc1F` was 100 nM.

For the molecule `Cc1ncnc2[nH]c(C3CN(C(=O)OCc4ccc(F)cc4)CCO3)nc12` (stereo not given), the IC50 turned out to be 637 nM.

For the molecule `O=C(OCc1ccccc1Cl)N1CCOC(c2nc3cncnc3[nH]2)C1` (stereo not given), the IC50 was 88 nM.

For the molecule `O=C(OCc1ccc(Cl)c(F)c1)N1CCOC(c2nc3cncnc3[nH]2)C1` (stereo not given), the IC50 worked out at 314 nM. `Cc1ccc(COC(=O)N2CCOC(c3nc4cncnc4[nH]3)C2)c(F)c1` (stereo not given): the IC50 amounted to 49 nM. The value for `Cc1cc(F)ccc1COC(=O)N1CCOC(c2nc3cncnc3[nH]2)C1` (stereo not given) was 234 nM.
